pIC50: −log10 of the molar value. Structures can show the parent of a compound that is named as a salt.
Molecular target: T1, Recombinant human H-PGDS (Homo sapiens, UniProt O60760)
T1 construct: made in house; host or cells: E. coli
Assay: H-PGDS inhibitory activity (prostaglandin D2 production from prostaglandin H2, measured by LC-MS/MS)
Type: biochemical
Settings: recombinant human H-PGDS 1.0 nM expressed in E. coli; prostaglandin H2 25 μM; preincubated 15 minutes on ice, reacted on ice for 1 minute; concentration that inhibits prostaglandin D2 production by 50%
Procedure: The H-PGDS inhibitory activity of each Example compound was measured according to the method reported by LIN, Jiang. et al. (NO 2007/041634).
Recombinant human H-PGDS (final concentration: 1.0 nM) expressed in E. coli was mixed in an assay buffer containing 20 mM Tris-HCl (pH 8.0), 2 mM magnesium chloride, 2 mM reduced glutathione, and 0.5 mg/mL γ-globulin, and 150 μL of the mixture was dispensed into a 8-strip PCR tube (BM Equipment Co., Ltd.). Test compounds (Example compounds) (16.5 μL) at various concentrations dissolved in DMSO were added and the mixture was preincubated for 15 minutes on ice.
Prostaglandin H2 (final concentration: 25 μM) (Cayman Chemical) was dispensed into another 8-strip PCR tube, and the solvent was dried and solidified using a vacuum concentrator (Thermo Fisher Scientific). To the dried and solidified prostaglandin H2 was added 50 μL of the assay buffer containing H-PGDS and each test compound after the preincubation, and the mixture was reacted on ice for 1 minute. 45 μL of this mixture was added to 45 μL of a stop solution (50 mM aqueous citric acid solution containing iron chloride at a final concentration of 4 mg/mL) to stop the reaction. Then, the reaction solution was deproteinized, added to a 96 square deep well plate (SHONANMARUHACHI STEC Co., Ltd.), and the prostaglandin D2 concentration in the reaction solution was measured by LC-MS/MS. ACQUITY (registered trademark) TQD (Waters) was used as a measuring instrument.
Prostaglandin Da production activity (f) in the group with each test compound when a value obtained by subtracting the amount of production of prostaglandin D2 in the group without enzyme, which is non-specific production of prostaglandin D2, from the amount of production of prostaglandin Da in the group without test compound (DMSO-addition group) in each 8-strip PCR tube is 100% was calculated.

T1 sequence (O60760 whole entry): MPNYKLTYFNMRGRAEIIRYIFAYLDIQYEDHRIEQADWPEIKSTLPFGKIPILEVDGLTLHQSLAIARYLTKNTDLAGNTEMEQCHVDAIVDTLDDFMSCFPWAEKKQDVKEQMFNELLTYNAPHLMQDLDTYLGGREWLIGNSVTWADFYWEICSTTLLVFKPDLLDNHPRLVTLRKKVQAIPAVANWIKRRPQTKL

Compound | pIC50
O=C(NCc1cccc(OC(F)F)c1)c1ccc(-c2nccc3[nH]ccc23)cc1 [Example 35, N-[3-(difluoromethoxy)benzyl]-4-(1H-pyrrolo[3,2-c]pyridin-4-yl)benzamide] | 8.80
O=C(NCC1CCCC1)c1ccc(-c2nccc3[nH]ccc23)cc1 [Example 36, N-(cyclopenthyl-methyl)-4-(1H-pyrrolo[3,2-c]pyridin-4-yl)benzamide] | 9.08
Cn1nccc1CNC(=O)c1ccc(-c2nccc3[nH]ccc23)cc1 [Example 37, N-[(1-methyl-1H-pyrazol-5-yl)methyl]-4-(1H-pyrrolo[3,2-c]pyridin-4-yl)benzamide] | 9.07
Cc1cc(CNC(=O)c2ccc(-c3nccc4[nH]ccc34)cc2)nn1C [Example 38, N-[(1,5-dimethyl-1H-pyrazol-3-yl)methyl]-4-(1H-pyrrolo[3,2-c]pyridin-4-yl)benzamide] | 8.89
Cc1nn(C)cc1CNC(=O)c1ccc(-c2nccc3[nH]ccc23)cc1 [Example 39, N-[(1,3-dimethyl-1H-pyrazol-4-yl)methyl]-4-(1H-pyrrolo[3,2-c]pyridin-4-yl)benzamide] | 8.96
Cc1nn(C)c(C)c1CNC(=O)c1ccc(-c2nccc3[nH]ccc23)cc1 [Example 40, 4-(1H-pyrrolo[3,2-c]pyridin-4-yl)-N-[(1,3,5-trimethyl-1H-pyrazol-4-yl)methyl] benzamide] | 9.05
Cn1cncc1CNC(=O)c1ccc(-c2nccc3[nH]ccc23)cc1 [Example 41, N-[(1-methyl-1H-imidazol-5-yl)methyl]-4-(1H-pyrrolo[3,2-c]pyridin-4-yl)benzamide] | 9.20
Cc1c(CNC(=O)c2ccc(-c3nccc4[nH]ccc34)cc2)cnn1C [Example 42, N-[(1,5-dimethyl-1H-pyrazol-4-yl)methyl]-4-(1H-pyrrolo[3,2-c]pyridin-4-yl)benzamide] | 9.13
O=C(NCc1cnn(CC(F)(F)F)c1)c1ccc(-c2nccc3[nH]ccc23)cc1 [Example 43, 4-(1H-pyrrolo[3,2-c]pyridin-4-yl)-N-{[1-(2,2,2-trifluoroethyl)-1H-pyrazol-4-yl]methyl} benzamide] | 8.89
CCCn1ccc(CNC(=O)c2ccc(-c3nccc4[nH]ccc34)cc2)n1 [Example 44, N-[(1-propyl-1H-pyrazol-3-yl)methyl]-4-(1H-pyrrolo[3,2-c]pyridin-4-yl)benzamide] | 9.01
COCCn1nc(C)c(CNC(=O)c2ccc(-c3nccc4[nH]ccc34)cc2)c1C [Example 45, N-{[1-(2-methoxyethyl)-3,5-dimethyl-1H-pyrazol-4-yl]methyl}-4-(1H-pyrrolo[3,2-c]pyridin-4-yl)benzamide] | 9.04
O=C(NCCCN1CCS(=O)(=O)CC1)c1ccc(-c2nccc3[nH]ccc23)cc1 [Example 46, N-[3-(1,1-dioxidothiomorpholino)propyl]-4-(1H-pyrrolo[3,2-c]pyridin-4-yl)benzamide] | 9.20
NS(=O)(=O)c1ccc(CCNC(=O)c2ccc(-c3nccc4[nH]ccc34)cc2)cc1 [Example 47, 4-(1H-pyrrolo[3,2-c]pyridin-4-yl)-N-(4-sulfamoylphenethyl) benzamide] | 8.96
COCCn1cc(CNC(=O)c2ccc(-c3nccc4[nH]ccc34)cc2)cn1 [Example 48, N-{[1-(2-methoxyethyl)-1H-pyrazol-4-yl]methyl}-4-(1H-pyrrolo[3,2-c]pyridin-4-yl)benzamide] | 9.14
Cc1cc(CNC(=O)c2ccc(-c3nccc4[nH]ccc34)cc2)[nH]n1 [Example 49, N-[(3-methyl-1H-pyrazol-5-yl)methyl]-4-(1H-pyrrolo[3,2-c]pyridin-4-yl)benzamide] | 8.92
Cn1cc(Br)c(CNC(=O)c2ccc(-c3nccc4[nH]ccc34)cc2)n1 [Example 50, N-[(4-bromo-1-methyl-1H-pyrazol-3-yl)methyl]-4-(1H-pyrrolo[3,2-c]pyridin-4-yl)benzamide] | 8.85
CCn1nccc1CNC(=O)c1ccc(-c2nccc3[nH]ccc23)cc1 [Example 51, N-[(1-ethyl-1H-pyrazol-5-yl)methyl]-4-(1H-pyrrolo[3,2-c]pyridin-4-yl)benzamide] | 9.20
Cn1ccnc1CNC(=O)c1ccc(-c2nccc3[nH]ccc23)cc1 [Example 52, N-[(1-methyl-1H-imidazol-2-yl)methyl]-4-(1H-pyrrolo[3,2-c]pyridin-4-yl)benzamide] | 8.80
Cn1ccc(CNC(=O)c2ccc(-c3nccc4[nH]ccc34)cc2)n1 [Example 53, N-[(1-methyl-1H-pyrazol-3-yl)methyl]-4-(1H-pyrrolo[3,2-c]pyridin-4-yl)benzamide] | 8.89
O=C(NCc1cc[nH]n1)c1ccc(-c2nccc3[nH]ccc23)cc1 [Example 54, N-[(1H-pyrazol-3-yl)methyl]-4-(1H-pyrrolo[3,2-c]pyridin-4-yl)benzamide] | 8.92

Compound | pIC50
Cn1cc(CNC(=O)c2ccc(-c3nccc4[nH]ccc34)cc2)cn1 [Example 55, N-[(1-methyl-1H-pyrazol-4-yl)methyl]-4-(1H-pyrrolo[3,2-c]pyridin-4-yl)benzamide] | 8.92
O=C(NCc1ccccc1Cl)c1ccc(-c2nccc3[nH]ccc23)cc1 [Example 56, N-(2-chlorobenzyl)-4-(1H-pyrrolo[3,2-c]pyridin-4-yl)benzamide] | 8.77
O=C(NCc1cccc(Cl)c1)c1ccc(-c2nccc3[nH]ccc23)cc1 [Example 57, N-(3-chlorobenzyl)-4-(1H-pyrrolo[3,2-c]pyridin-4-yl)benzamide] | 8.85
O=C(NCc1ccc(Cl)cc1)c1ccc(-c2nccc3[nH]ccc23)cc1 [Example 58, N-(4-chlorobenzyl)-4-(1H-pyrrolo[3,2-c]pyridin-4-yl)benzamide] | 9.19
O=C(NCc1ccccc1)c1ccc(-c2nccc3sccc23)cc1 [Example 59, N-benzyl-4-(thieno[3,2-c]pyridin-4-yl)benzamide] | 8.02
O=C(NCc1ccncc1)c1ccc(-c2nccc3sccc23)cc1 [Example 60, N-(pyridin-4-ylmethyl)-4-(thieno[3,2-c]pyridin-4-yl)benzamide] | 7.82
CC(O)CNC(=O)c1ccc(-c2nccc3sccc23)cc1 (stereo not shown) [Example 61, N-(2-hydroxypropyl)-4-(thieno[3,2-c]pyridin-4-yl)benzamide] | 7.51
CC(C)N(CCNC(=O)c1ccc(-c2nccc3sccc23)cc1)C(C)C [Example 62, N-[2-(diisopropylamino)ethyl]-4-(thieno[3,2-c]pyridin-4-yl)benzamide dihydrochloride] | 7.07
CC(C)(O)[C@H]1CC[C@H](NC(=O)c2ccc(-c3nccc4sccc34)cc2)CC1 [Example 63, N-[trans-4-(2-hydroxypropan-2-yl)cyclohexyl]-4-(thieno[3,2-c]pyridin-4-yl)benzamide] | 8.82
CC(C)(O)CO[C@H]1CC[C@H](NC(=O)c2ccc(-c3nccc4occc34)cc2)CC1 [Example 64, 4-(furo[3,2-c]pyridin-4-yl)-N-[trans-4-(2-hydroxy-2-methylpropoxy)cyclohexyl]benzamide] | 8.51
O=C(NCc1ccccc1CO)c1ccc(-c2nccc3occc23)cc1 [Example 65, 4-(furo[3,2-c]pyridin-4-yl)-N-[2-(hydroxymethyl)benzyl]benzamide] | 8.05
O=C(NCc1cccc(CO)c1)c1ccc(-c2nccc3occc23)cc1 [Example 66, 4-(furo[3,2-c]pyridin-4-yl)-N-[3-(hydroxymethyl)benzyl]benzamide] | 8.19
O=C(NCc1ccccc1)c1ccc(-c2nccc3occc23)cc1 [Example 67, N-benzyl-4-(furo[3,2-c]pyridin-4-yl)benzamide] | 7.57
CC(O)CNC(=O)c1ccc(-c2nccc3occc23)cc1 (stereo not shown) [Example 68, 4-(furo[3,2-c]pyridin-4-yl)-N-(2-hydroxypropyl) benzamide] | 7.82
O=C(NCc1cccc(Cl)c1)c1ccc(-c2nccc3occc23)cc1 [Example 69, N-(3-chlorobenzyl)-4-(furo[3,2-c]pyridin-4-yl)benzamide] | 8.22
O=C(NCc1ccc(Cl)cc1)c1ccc(-c2nccc3occc23)cc1 [Example 70, N-(4-chlorobenzyl)-4-(furo[3,2-c]pyridin-4-yl)benzamide] | 7.92
O=C(NCc1ccccc1Cl)c1ccc(-c2nccc3occc23)cc1 [Example 71, N-(2-chlorobenzyl)-4-(furo[3,2-c]pyridin-4-yl)benzamide] | 7.92
O=C(NCc1ccncc1)c1ccc(-c2nccc3occc23)cc1 [Example 72, 4-(furo[3,2-c]pyridin-4-yl)-N-(pyridin-4-ylmethyl) benzamide] | 7.92
N#Cc1cccc(CNC(=O)c2ccc(-c3nccc4occc34)cc2)c1 [Example 73, N-(3-cyanobenzyl)-4-(furo[3,2-c]pyridin-4-yl)benzamide] | 8.32
N#Cc1ccc(CNC(=O)c2ccc(-c3nccc4occc34)cc2)cc1 [Example 74, N-(4-cyanobenzyl)-4-(furo[3,2-c]pyridin-4-yl)benzamide] | 8.20

From patent US20230339937A1, “CONDENSED RING COMPOUNDS THAT INHIBIT H-PGDS” (SATO PHARMACEUTICAL CO., LTD., priority 2020, published 2023)
